For the assay, the system named is LpxC enzyme. The assay is described as follows: LpxC enzyme assay (RapidFire high-throughput mass spectrometry). The class given is biochemical. As for the experimental part:
The standard LpxC assay consists of 0.2 nM LpxC enzyme, 1.0 μM UDP-3-O—(R-3-hydroxymyristoyl)-N-acetylglucosamine, and test compound, in assay buffer and 2% DMSO. Assay buffer is comprised of 25 mM HEPES, pH 7.3, 150 mM NaCl, 2.0 mM DTT, and 0.01% BSA. The enzyme reaction is carried out in a 96-well assay plate, in a final volume of 102 μL. Solutions of test compounds are prepared in 100% DMSO. Reaction additions, in order, are (1) 2.0 μL compound solution, (2) 80 μL of assay buffer, (3) 10 μL of 10 μM UDP-3-O—(R-3-hydroxymyristoyl)-N-acetylglucosamine (in assay buffer) and, (4) 10 μL of LpxC enzyme (20 nM in assay buffer) to initiate the reaction. In positive control reactions, addition (1) has 2.0 μL of 100% DMSO (without compound); these reactions are used as the total signal (TSB) value. Reactions are incubated at room temperature for 60 minutes when 10 μL of 1 N HCl is added to stop the reaction. The plate is shaken by hand for 10 seconds to ensure complete quenching. Assay plates are sealed with foil tape, and stored at −80° C. for 24-48 hr prior to analysis.
The concentrations of substrate and product in the reaction mixtures are determined with BioTrove's proprietary RapidFire™ high-throughput mass spectrometry (HTMS). Assay mixtures are partially purified with reverse phase chromatography, where they are washed with water containing 5 mM ammonium formate and eluted onto the mass spectrometer in 80% acetonitrile, 20% water, and 5 mM ammonium formate. The mass spectrometry peak areas of the substrate and product are measured to determine the concentration of these analytes. The assay signal is the percentage of substrate that is converted to product. Percent inhibition, % I, in test samples is determined from the following equation: […]

[1] abbreviates: concentration 0.10 (unit not given).
The mark [2] stands for this setting: concentration 0.20 (unit not given).
Setting [3] is: concentration 0.39 (unit not given).
Setting [4] is: concentration 0.78 (unit not given).
[5] abbreviates: concentration 1.56 (unit not given).
Where [6] appears, read: concentration 3.13 (unit not given).
Setting [7] is: concentration 6.25 (unit not given).
The mark [8] stands for this setting: concentration 12.50 (unit not given).
The mark [9] stands for this setting: concentration 25 (unit not given).
[10] abbreviates: concentration 50 (unit not given).

The text below walks through data of US7553864B2, “Compounds for the treatment of inflammatory disorders and microbial diseases” (Schering Corporation, priority 2005, dated 2009).

The structures appear in SMILES notation.

In the case of `CN(C)C(=O)[C@H](O)[C@@H](O)C(=O)Nc1ccc(C#Cc2ccccc2)cc1` [Compound 43], the “LpxC enzyme assay rating (% inhibition at indicated concentrations)” value is “C (less than 10% inhibition)” under setting [1]; “B (10-30% inhibition)” under setting [2]; “C (less than 10% inhibition)” under setting [3]; “C (less than 10% inhibition)” under setting [4]; “B (10-30% inhibition)” under setting [5]; “B (10-30% inhibition)” under setting [6]. The “LpxC enzyme assay rating (% inhibition at indicated concentrations)” value under setting [7] is recorded as “B (10-30% inhibition)”, the “LpxC enzyme assay rating (% inhibition at indicated concentrations)” value under setting [8] is given as “A (greater than 30% inhibition)”, the “LpxC enzyme assay rating (% inhibition at indicated concentrations)” value under setting [9] is recorded as “A (greater than 30% inhibition)” and the “LpxC enzyme assay rating (% inhibition at indicated concentrations)” value under setting [10] was “A (greater than 30% inhibition)”.
Turning to `CN(C)C(=O)[C@H](O)[C@@H](O)C(=O)n1ccc2cc(C#Cc3ccccc3)ccc21` [Compound 44], the “LpxC enzyme assay rating (% inhibition at indicated concentrations)” value is given as “C (less than 10% inhibition)” under setting [1]; “B (10-30% inhibition)” under setting [2]; “C (less than 10% inhibition)” under setting [3]; “C (less than 10% inhibition)” under setting [4]; “C (less than 10% inhibition)” under setting [5]; “B (10-30% inhibition)” under setting [6]. Also, the “LpxC enzyme assay rating (% inhibition at indicated concentrations)” value under setting [7] is reported as “B (10-30% inhibition)”, the “LpxC enzyme assay rating (% inhibition at indicated concentrations)” value under setting [8] was “A (greater than 30% inhibition)”, the “LpxC enzyme assay rating (% inhibition at indicated concentrations)” value under setting [9] is “A (greater than 30% inhibition)” and the “LpxC enzyme assay rating (% inhibition at indicated concentrations)” value under setting [10] was “A (greater than 30% inhibition)”.
On to `CN(C)C(=O)[C@H](O)[C@@H](O)C(=O)Nc1ccc(-c2ccccc2)cc1` [Compound 45], for which the “LpxC enzyme assay rating (% inhibition at indicated concentrations)” value under setting [1] is reported as “C (less than 10% inhibition)”; the “LpxC enzyme assay rating (% inhibition at indicated concentrations)” value under setting [2] was “C (less than 10% inhibition)”; the “LpxC enzyme assay rating (% inhibition at indicated concentrations)” value under setting [3] is recorded as “C (less than 10% inhibition)”; the “LpxC enzyme assay rating (% inhibition at indicated concentrations)” value under setting [4] is listed as “C (less than 10% inhibition)”; the “LpxC enzyme assay rating (% inhibition at indicated concentrations)” value under setting [5] is given as “C (less than 10% inhibition)”; the “LpxC enzyme assay rating (% inhibition at indicated concentrations)” value under setting [6] is reported as “C (less than 10% inhibition)”. In addition, the “LpxC enzyme assay rating (% inhibition at indicated concentrations)” value reads like this: under setting [7], “C (less than 10% inhibition)”; under setting [8], “C (less than 10% inhibition)”; under setting [9], “C (less than 10% inhibition)”; under setting [10], “C (less than 10% inhibition)”.
In the case of `CN(C)C(=O)[C@H](O)[C@@H](O)C(=O)Nc1ccc(-c2ccc(C(F)(F)F)cc2)cc1` [Compound 46], the “LpxC enzyme assay rating (% inhibition at indicated concentrations)” value runs as follows: under setting [1], “C (less than 10% inhibition)”; under setting [2], “C (less than 10% inhibition)”; under setting [3], “C (less than 10% inhibition)”; under setting [4], “C (less than 10% inhibition)”; under setting [5], “C (less than 10% inhibition)”; under setting [6], “C (less than 10% inhibition)”. In addition, the “LpxC enzyme assay rating (% inhibition at indicated concentrations)” value reads like this: under setting [7], “C (less than 10% inhibition)”; under setting [8], “B (10-30% inhibition)”; under setting [9], “B (10-30% inhibition)”; under setting [10], “A (greater than 30% inhibition)”.
Take `CN(C)C(=O)[C@H](O)[C@@H](O)C(=O)N1CCN(c2ccc(-c3ccccc3)cc2)CC1` [Compound 47]: the “LpxC enzyme assay rating (% inhibition at indicated concentrations)” value reads like this: under setting [1], “B (10-30% inhibition)”; under setting [2], “B (10-30% inhibition)”; under setting [3], “C (less than 10% inhibition)”; under setting [4], “B (10-30% inhibition)”; under setting [5], “C (less than 10% inhibition)”; under setting [6], “B (10-30% inhibition)”. Besides, the “LpxC enzyme assay rating (% inhibition at indicated concentrations)” value by setting is: under setting [7], “B (10-30% inhibition)”; under setting [8], “B (10-30% inhibition)”; under setting [9], “C (less than 10% inhibition)”; under setting [10], “B (10-30% inhibition)”.
Regarding `CCCCc1ccc(NC(=O)[C@H](O)[C@@H](O)C(=O)N(C)C)cc1` [Compound 48], the “LpxC enzyme assay rating (% inhibition at indicated concentrations)” value is reported as “B (10-30% inhibition)” under setting [1]; “C (less than 10% inhibition)” under setting [2]; “C (less than 10% inhibition)” under setting [3]; “C (less than 10% inhibition)” under setting [4]; “C (less than 10% inhibition)” under setting [5]; “B (10-30% inhibition)” under setting [6]. The “LpxC enzyme assay rating (% inhibition at indicated concentrations)” value by setting is: under setting [7], “C (less than 10% inhibition)”; under setting [8], “B (10-30% inhibition)”; under setting [9], “C (less than 10% inhibition)”; under setting [10], “B (10-30% inhibition)”.
On to `CCCc1ccc(NC(=O)[C@H](O)[C@@H](O)C(=O)N(C)C)cc1` [Compound 49], for which the “LpxC enzyme assay rating (% inhibition at indicated concentrations)” value by setting is: under setting [1], “C (less than 10% inhibition)”; under setting [2], “C (less than 10% inhibition)”; under setting [3], “B (10-30% inhibition)”; under setting [4], “C (less than 10% inhibition)”; under setting [5], “C (less than 10% inhibition)”; under setting [6], “C (less than 10% inhibition)”. Moreover, the “LpxC enzyme assay rating (% inhibition at indicated concentrations)” value is, setting by setting: under setting [7], “C (less than 10% inhibition)”; under setting [8], “C (less than 10% inhibition)”; under setting [9], “B (10-30% inhibition)”; under setting [10], “C (less than 10% inhibition)”.
With `CCC(C)c1ccc(NC(=O)[C@H](O)[C@@H](O)C(=O)N(C)C)cc1` (stereo partly drawn) [Compound 50], the “LpxC enzyme assay rating (% inhibition at indicated concentrations)” value is recorded as “C (less than 10% inhibition)” under setting [1]; “C (less than 10% inhibition)” under setting [2]; “C (less than 10% inhibition)” under setting [3]; “B (10-30% inhibition)” under setting [4]; “C (less than 10% inhibition)” under setting [5]; “C (less than 10% inhibition)” under setting [6]. In addition, the “LpxC enzyme assay rating (% inhibition at indicated concentrations)” value is “B (10-30% inhibition)” under setting [7], “B (10-30% inhibition)” under setting [8], “C (less than 10% inhibition)” under setting [9] and “B (10-30% inhibition)” under setting [10].
As to `CN(C)C(=O)[C@H](O)[C@@H](O)C(=O)N1CCC(c2ccc(C(F)(F)F)cc2)CC1` [Compound 51], the “LpxC enzyme assay rating (% inhibition at indicated concentrations)” value under setting [1] is on record as “B (10-30% inhibition)”; the “LpxC enzyme assay rating (% inhibition at indicated concentrations)” value under setting [2] is listed as “C (less than 10% inhibition)”; the “LpxC enzyme assay rating (% inhibition at indicated concentrations)” value under setting [3] is “C (less than 10% inhibition)”; the “LpxC enzyme assay rating (% inhibition at indicated concentrations)” value under setting [4] was “C (less than 10% inhibition)”; the “LpxC enzyme assay rating (% inhibition at indicated concentrations)” value under setting [5] is recorded as “B (10-30% inhibition)”; the “LpxC enzyme assay rating (% inhibition at indicated concentrations)” value under setting [6] is given as “C (less than 10% inhibition)”. Besides, the “LpxC enzyme assay rating (% inhibition at indicated concentrations)” value is reported as “C (less than 10% inhibition)” under setting [7], “C (less than 10% inhibition)” under setting [8], “B (10-30% inhibition)” under setting [9] and “B (10-30% inhibition)” under setting [10].
